Source: US11786519B2, “Apoptosis-inducing agents for the treatment of cancer and immune and autoimmune diseases” (AbbVie Inc., priority 2011, dated 2023)

Tests used:
[1] = biological target: Bcl-xL (Homo sapiens, UniProt Q07817); assay: TR-FRET binding assay, competition with F-Bak for Bcl-xL; conditions: competition with F-Bak probe, GST-Bcl-xL
Summary of the method: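 Serially diluted compounds ([…] as 2× starting concentration, 10% DMSO) compete with F-Bak probe for Bcl-xL, detected via Tb-labelled antibody TR-FRET after 2 h at room temperature. Excitation 340 nm, emission 520/495 nm; Ki derived by Wang's equation. Can be run with human or fetal bovine serum.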

[2] = biological target: mouse FL5.12 cells transfected with Bcl-xL (Homo sapiens, UniProt Q07817); assay: FL5.12 cellular assay (cell viability, CellTiter-Glo); assay type: cell-based; conditions: IL-3-depleted, 3% FBS assay media, 24 hours; read-out: FL5.12 Bcl-xL, −IL3, EC50
Chain of mouse FL5.12 cells transfected with Bcl-xL (Q07817 whole entry, change not shown): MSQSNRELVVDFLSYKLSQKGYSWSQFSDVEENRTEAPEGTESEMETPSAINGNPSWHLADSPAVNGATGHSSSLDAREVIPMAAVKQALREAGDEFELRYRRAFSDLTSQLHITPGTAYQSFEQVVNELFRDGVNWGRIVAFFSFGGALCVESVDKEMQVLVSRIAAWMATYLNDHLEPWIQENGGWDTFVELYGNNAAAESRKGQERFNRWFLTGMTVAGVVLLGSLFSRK
From the text: Individual determinations were the result of duplicate values.

[3] = Single dose pharmacokinetics, oral bioavailability; assay type: in vivo, Sprague-Dawley rats; conditions: Rat p.o. dose
Method: Compound and internal standard peak areas were determined using Scicx MacQuan software.

[4] = biological target: T1, Bcl-2 (Homo sapiens, UniProt P10415); assay: TR-FRET binding assay, competition with F-Bak for Bcl-2; conditions: GST-Bcl-2, read-out: Ki, competition with F-Bak for the Bcl-2 binding site
T1 construct: made in house
T1 sequence (P10415 whole entry): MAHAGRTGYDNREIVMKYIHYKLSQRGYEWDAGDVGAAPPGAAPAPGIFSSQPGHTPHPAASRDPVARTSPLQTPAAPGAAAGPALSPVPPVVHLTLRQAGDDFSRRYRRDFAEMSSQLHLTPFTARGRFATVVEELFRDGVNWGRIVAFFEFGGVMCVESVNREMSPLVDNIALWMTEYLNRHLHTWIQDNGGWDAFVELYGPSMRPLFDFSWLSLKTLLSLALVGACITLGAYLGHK
Method: The samples are then mixed on a shaker for 1 minute then incubated for an additional 2 hours at room temperature. For each assay plate, a probe/antibody and protein/antibody/probe mixture were included as a negative and a positive control, respectively. Fluorescence was measured on the ENVISION plate reader (Perkin Elmer) using a 340/35 nm excitation filter and 520/525 (F-Bak) and 495/510 nm (Tb-labeled anti-his antibody) emission filters. Dissociation constants (Ki) were determined using Wang's equation (Wang, Z. X. An exact mathematical expression for describing competitive binding of two different ligands to a protein molecule. FEBS Lett. 1995 360:111-114). […] For comparison, the measurement of the competition of compounds of Formula (I) for other Bcl-2 family protein binding sites (e.g., Bcl-2) using the TR-FRET binding assay was accomplished by substituting GST-Bcl-xL in the TR-FRET assay with other GST-labeled protein, e.g., GST-Bcl-2, prepared in-house.

Chain of Bcl-xL (Q07817 whole entry): as the sequence (Q07817 whole entry, change not shown) above

Row | Structure (SMILES) | Ki [1] [nM] | EC50 [2] [nM] | F (%), dose ([3]; 5 mpk) | F (%), dose ([3]; 1 mpk) | Ki [4] [nM]
1 | COC12CC3CC(CC(Cn4ncc(-c5ccc(N6CCc7cccc(C(=O)Nc8nc9ccccc9s8)c7C6)nc5C(=O)O)c4C)(C3)C1)C2 [Example 16, 6-[8-(1,3-benzothiazol-2-ylcarbamoyl)-3,4-dihydroisoquinolin-2(1H)-yl]-3-(1-{[3-methoxytricyclo[3.3.1.1^3,7]dec-1-yl]methyl}-5-methyl-1H-pyrazol-4-yl)pyridine-2-carboxylic acid] | < 0.1 | < 1 | 20, 5 mpk % | – | –
2 | Cc1c(-c2ccc(N3CCc4cccc(C(=O)Nc5cn6ccccc6n5)c4C3)nc2C(=O)O)cnn1CC12CC3CC(CC(C3)C1)C2 [Example 49, 6-[8-(imidazo[1,2-a]pyridin-2-ylcarbamoyl)-3,4-dihydroisoquinolin-2(1H)-yl]-3-[5-methyl-1-(tricyclo[3.3.1.1^3,7]dec-1-ylmethyl)-1H-pyrazol-4-yl]pyridine-2-carboxylic acid] | < 0.1 | 5 | – | 15, 1 mpk % | –
3 | Cc1c(-c2ccc(N3CCc4cccc(C(=O)Nc5nc6ccccc6s5)c4C3)nc2C(=O)O)cnn1CC12CC3CC(CC(C3)O1)C2 [Example 59, 6-[8-(1,3-benzothiazol-2-ylcarbamoyl)-3,4-dihydroisoquinolin-2(1H)-yl]-3-[5-methyl-1-(2-oxatricyclo[3.3.1.1^3,7]dec-1-ylmethyl)-1H-pyrazol-4-yl]pyridine-2-carboxylic acid] | < 0.1 | 0.3 | – | 31, 1 mpk % | 7
